Test results: publication PMC12533803, “Rotenoids from the Roots of Vicia faba L. (Fabaceae): Structural Characterization, Cytotoxic Effects, and Molecular Docking” (Chemistry & Biodiversity, 2025)

Assays:
[1] = system: HCT‐116 (human colorectal carcinoma) cell line; assay: MTT cytotoxicity assay, HCT-116; assay type: cell-based; details: for cytotoxic activity HCT‐116: MTT, 0.0032 to 50 µM, 72 h
Method: (§1) ATCC CCL 247), 501Mel (melanoma; RRID: CVCL_4633), and MCF‐7 (breast adenocarcinoma; ATCC HTB 22), along with non‐tumor cells line NIH/3T3 (mouse embryonic fibroblast; ATCC CRL 1658). […] Cells were kept at 37°C in a humidified atmosphere containing 5% CO2. […] At the end of the incubation period, the culture medium was replaced with a fresh medium containing MTT solution (0.5 mg/mL) and further incubated for 3 h. The MTT solution was then removed, and the formazan crystals formed were dissolved in 150 µL of DMSO. Absorbance for each well was measured at 570 nm, and then the values thereof were normalized in the percentage of viable cells based on that of the negative control.

[2] = system: NIH/3T3 (mouse embryonic fibroblast) cell line; assay: MTT cytotoxicity assay, non-tumor NIH/3T3; assay type: cell-based; details: for cytotoxic activity NIH/3T3: 0.0032 to 50 µM, 72 h
Method: as §1

[3] = system: 501Mel (melanoma) cell line; assay: MTT cytotoxicity assay, 501Mel; assay type: cell-based, human; details: for cytotoxic activity 501Mel: 0.0032 to 50 µM, 72 h
Method: as §1

[4] = system: MCF‐7 (breast adenocarcinoma) cell line; assay: MTT cytotoxicity assay, MCF-7; assay type: cell-based, human; details: for cytotoxic activity MCF‐7: MTT, 0.0032 to 50 µM, 72 h
Method: as §1

| SMILES | cytotoxic activity HCT‐116 [1] | cytotoxic activity NIH/3T3 [2] | cytotoxic activity 501Mel ([3]; MTT) | cytotoxic activity MCF‐7 [4] | Selectivity Index (SI) HCT‐116 ([1]; HCT-116 versus NIH/3T3) | IC50 ([2]; Mus musculus, NIH3T3, 72 h incubation, non-tumor cells) [nM] | Selectivity Index (SI) 501Mel ([3]; 501Mel versus NIH/3T3) | IC50 ([3]; Homo sapiens, MTT, 72 h incubation) [nM] | Selectivity Index (SI) MCF‐7 ([4]; MCF-7 versus NIH/3T3) |
| --- | --- | --- | --- | --- | --- | --- | --- | --- | --- |
| COc1ccc(-c2coc3cc(OC)c(O)cc3c2=O)cc1 [Compound 2, Alfalone] | no cytotoxic activity | no cytotoxic activity | no cytotoxic activity | no cytotoxic activity |  |  |  |  |  |
| COc1ccc(-c2coc3c(OC)c(O)ccc3c2=O)cc1 [Compound 3, 8‐O‐methylretusin] | no cytotoxic activity | no cytotoxic activity | no cytotoxic activity | no cytotoxic activity |  |  |  |  |  |
| COc1cccc2c1C(=O)c1c(O)c3c(c(O)c1C2=O)C[C@@](O)(C(=O)CO)C[C@@H]3O[C@H]1C[C@H](N)[C@H](O)[C@H](C)O1 [Doxorubicin, reference compound] |  |  |  |  | 7.0 | 350 | 2.91 | 120 | 11.67 |
